In the first assay the test system is Influenza strain A549 A/WSN/33 (H1N1). Briefly: Influenza Antiviral Assay. The format is cell-based, Influenza A virus. The settings on record: Influenza A virus, A549, 20 h, neuraminidase fluorescence readout, read-out: % Inhibition.
Take `CC(NC(=O)c1nn(CC2(c3cccc(C(F)(F)F)c3)CCCC2)cc(O)c1=O)c1ccccc1` (stereo not drawn) [Compound 637]: the EC50 is less than 20 µM.
For the molecule `CNC(=O)c1nn(Cc2ccccc2-c2ccc(C(C)(C)C)cc2)cc(O)c1=O` [Compound 642], the EC50 is more than 100 µM.
Regarding `CNC(=O)c1nn(-c2ccccc2Sc2cccc(Cl)c2)cc(O)c1=O` [Compound 643], the EC50 was more than 100 µM.
As to `CNC(=O)c1nn(CC(Cc2ccccc2)c2cccc(C(F)(F)F)c2)cc(O)c1=O` (stereo not drawn) [Compound 647], the EC50 is less than 20 µM.
Same read-out and setting: as for `CNC(=O)c1nn(-c2ccccc2-c2ccc3ccncc3c2)cc(O)c1=O` [Compound 651], the figure is 20 to 100 µM.
Turning to `CNC(=O)c1nn(-c2ccccc2-c2cc(C)cc(OCC3CC3)c2)cc(O)c1=O` [Compound 652], the EC50 is more than 100 µM.
On to `Cc1cc(OCC2CC2)cc(-c2ccccc2-n2cc(O)c(=O)c(C(=O)O)n2)c1` [Compound 653], for which the EC50 was more than 100 µM.
On to `CC(C)(C)c1ccc(-c2ccccc2Cn2cc(O)c(=O)c(C(=O)O)n2)cc1` [Compound 657], for which the EC50 was more than 100 µM.
Same read-out and setting: as for `CNC(=O)c1nn(C(Cc2ccccc2)C(=O)NC)cc(O)c1=O` (stereo not drawn) [Compound 667], the figure is more than 100 µM; as for `CNC(=O)c1nn(C(Cc2ccccc2)C(=O)Nc2ccccc2)cc(O)c1=O` (stereo not drawn) [Compound 668], more than 100 µM; as for `Cc1[nH]c2ccc(CNC(=O)c3nn(CC4(c5cccc(C(F)(F)F)c5)CCCC4)cc(O)c3=O)cc2c1C` [Compound 672], less than 20 µM.
Same read-out and setting: as for `CNC(=O)c1nn(CC2(n3cc(-c4cncnc4)c4cccnc43)CCCC2)cc(O)c1=O` [Compound 673], the figure is more than 100 µM; as for `CNC(=O)c1nn(CC2(c3ccc(OC)cc3)CC2)cc(O)c1=O` [Compound 675], more than 100 µM.
With `CNC(=O)c1nn(CC2(c3cccc(OC(F)(F)F)c3)CCCC2)cc(O)c1=O` [Compound 684], the EC50 is less than 20 µM.
Still for that read-out and setting: next, `CNC(=O)c1nn(CC2(c3ccc(C(C)C)cc3)CC2)cc(O)c1=O` [Compound 688]: less than 20 µM.
As to `CNC(=O)c1nn(Cc2cc(C(F)(F)F)ccc2-c2ccccc2)cc(O)c1=O` [Compound 689], the EC50 was more than 100 µM.
Take `CNC(=O)c1nn(Cc2cc(C(F)(F)F)ccc2-c2ccc(C(C)(C)C)cc2)cc(O)c1=O` [Compound 690]: the EC50 is more than 100 µM.
Regarding `O=C(NCc1ccccn1)c1nn(CC2(c3ccccc3)CCCC2)cc(O)c1=O` [Compound 691], the EC50 is less than 20 µM.
`O=C(Nc1ccc(Oc2ccccc2)cc1)c1nn(CC2(c3ccccc3)CCCC2)cc(O)c1=O` [Compound 696]: the EC50 is more than 100 µM.
For `COc1ccc(NC(=O)c2nn(CC3(c4ccccc4)CCCC3)cc(O)c2=O)cc1` [Compound 697], the EC50 was more than 100 µM.
Take `O=C(NCc1ccccc1)c1nn(CC2(c3ccccc3)CCCC2)cc(O)c1=O` [Compound 698]: the EC50 is less than 20 µM.
Turning to `O=C(NCc1cccnn1)c1nn(CC2(c3ccccc3)CCCC2)cc(O)c1=O` [Compound 699], the EC50 is less than 20 µM.
Consider `CNC(=O)c1nn(CC2(c3cccc(C(C)C)c3)CC2)cc(O)c1=O` [Compound 702], for which the EC50 is less than 20 µM.
Turning to `COc1ccc(NC(=O)c2nn(CC3(c4ccccc4)CCCC3)cc(O)c2=O)cc1OC` [Compound 705], the EC50 was more than 100 µM.
Turning to `CC(C)Oc1ccc(NC(=O)c2nn(CC3(c4ccccc4)CCCC3)cc(O)c2=O)cc1` [Compound 706], the EC50 was more than 100 µM.
Turning to `O=C(Nc1ccc(Cl)cc1Cl)c1nn(CC2(c3ccccc3)CCCC2)cc(O)c1=O` [Compound 707], the EC50 was less than 20 µM.
`CNC(=O)c1nn(CC2(c3ccc(-c4ccnn4C)cc3)CC2)cc(O)c1=O` [Compound 710]: the EC50 was more than 100 µM.
For `CNC(=O)c1nn(CC2(c3cccc(C4CCCCC4)c3)CCCC2)cc(O)c1=O` [Compound 711], the EC50 was less than 20 µM.
On to `CNC(=O)c1nn(CC2(c3cccc(-c4cn[nH]c4)c3)CC2)cc(O)c1=O` [Compound 712], for which the EC50 was more than 100 µM.
For `CNC(=O)c1nn(CC2(c3cccc(-c4ccnn4C)c3)CC2)cc(O)c1=O` [Compound 713], the EC50 is more than 100 µM.
Regarding `CNC(=O)c1nn(CC2(c3cccc(-c4cn[nH]c4)c3)CCCC2)cc(O)c1=O` [Compound 714], the EC50 is more than 100 µM.
As to `O=C(Nc1ccc(Cl)c(C(F)(F)F)c1)c1nn(CC2(c3ccccc3)CCCC2)cc(O)c1=O` [Compound 719], the EC50 is more than 100 µM.
Turning to `CS(=O)(=O)c1ccc(NC(=O)c2nn(CC3(c4ccccc4)CCCC3)cc(O)c2=O)cc1` [Compound 721], the EC50 is more than 100 µM.
Same read-out and setting: next, `CNC(=O)c1nn(CC2(c3cccc(-c4ccsc4)c3)CC2)cc(O)c1=O` [Compound 724]: more than 100 µM; `CNC(=O)c1nn(CC2(c3cccc(Oc4ccccc4)c3)CCCC2)cc(O)c1=O` [Compound 725]: less than 20 µM.
Still for that read-out and setting: next, `CNC(=O)c1nn(CC2(c3cccc(-c4cnc5ccccc5c4)c3)CC2)cc(O)c1=O` [Compound 726]: less than 20 µM.
As to `CNC(=O)c1nn(CC2(c3cccc(-c4cncc(F)c4)c3)CC2)cc(O)c1=O` [Compound 727], the EC50 was more than 100 µM.
Consider `CNC(=O)c1nn(CC2(c3ccc(-c4cn[nH]c4)cc3)CC2)cc(O)c1=O` [Compound 728], for which the EC50 was more than 100 µM.
Take `CNC(=O)c1nn(CC2(c3ccc(C4CCCCC4)cc3)CC2)cc(O)c1=O` [Compound 729]: the EC50 is more than 100 µM.
For the molecule `CNC(=O)c1nn(CC2(c3cccc(-c4ccnn4C)c3)CCCC2)cc(O)c1=O` [Compound 731], the EC50 was more than 100 µM.
Consider `CNC(=O)c1nn(CC2(c3cccc(-c4ccncc4)c3)CCCC2)cc(O)c1=O` [Compound 732], for which the EC50 is more than 100 µM.
Consider `CNC(=O)c1nn(CC2(c3cccc(-c4ccc(OC)nc4)c3)CCCC2)cc(O)c1=O` [Compound 734], for which the EC50 was more than 100 µM.
With `CNC(=O)c1nn(CC2(c3cccc(-c4cnc5ccccc5c4)c3)CCCC2)cc(O)c1=O` [Compound 735], the EC50 is more than 100 µM.
With `CNC(=O)c1nn(CC2(c3cccc(-c4cncc(F)c4)c3)CCCC2)cc(O)c1=O` [Compound 736], the EC50 is more than 100 µM.
On the same count and under the same terms, as for `CNC(=O)c1nn(CC2(c3ccc(-c4ccc5c(c4)OCO5)cc3)CC2)cc(O)c1=O` [Compound 737], the figure is less than 20 µM.
On the same count and under the same terms, next, `CNC(=O)c1nn(CC2(c3cccc(-c4ccco4)c3)CC2)cc(O)c1=O` [Compound 739]: more than 100 µM; `CNC(=O)c1nn(CC2(c3cccc(-c4ccoc4)c3)CC2)cc(O)c1=O` [Compound 744]: more than 100 µM.
Regarding `CNC(=O)c1nn(CC2(c3cccc(-c4ccco4)c3)CCCC2)cc(O)c1=O` [Compound 745], the EC50 is less than 20 µM.
Regarding `O=C(NCc1ccc(F)c(Cl)c1)c1nn(CC2(c3ccc(-c4ccccc4)cc3)CCCC2)cc(O)c1=O` [Compound 746], the EC50 was more than 100 µM.
As to `CNC(=O)c1nn(CC2(c3cccc(-c4cnn(C)c4)c3)CC2)cc(O)c1=O` [Compound 748], the EC50 was more than 100 µM.
For `O=C(NCc1ccc(F)c(Cl)c1)c1nn(CC2(c3cccc(Oc4ccccc4)c3)CCCC2)cc(O)c1=O` [Compound 751], the EC50 was more than 100 µM.
Still for that read-out and setting: as for `CNC(=O)c1nn(CC2(c3ccc(-c4cncc(F)c4)cc3)CCCC2)cc(O)c1=O` [Compound 763], the figure is less than 20 µM.
Still for that read-out and setting: as for `CNC(=O)c1nn(CC2(c3cccc(-c4ccn[nH]4)c3)CCCC2)cc(O)c1=O` [Compound 767], the figure is less than 20 µM; as for `CNC(=O)c1nn(CC2(c3cccc(-c4cnn(C)c4)c3)CCCC2)cc(O)c1=O` [Compound 769], more than 100 µM.
Turning to `CNC(=O)c1nn(CC2(c3ccc(-c4ccc(OC)nc4)cc3)CCCC2)cc(O)c1=O` [Compound 770], the EC50 was less than 20 µM.
Regarding `CNC(=O)c1nn(CC2(c3ccc(-c4ccnn4C)cc3)CCCC2)cc(O)c1=O` [Compound 779], the EC50 was more than 100 µM.
On to `CNC(=O)c1nn(CC2(c3ccc(-c4cc[nH]n4)cc3)CCCC2)cc(O)c1=O` [Compound 780], for which the EC50 is less than 20 µM.
The same measure, in the same setting: next, `CNC(=O)c1nn(CC2(c3ccc(-c4ccncc4)cc3)CCCC2)cc(O)c1=O` [Compound 781]: less than 20 µM.

For a further assay, the target named is EN PA (Influenza A virus, UniProt P15659). In words: EN PA FRET Inhibition Assay. It counts as biochemical. The settings on record: read-out: Potency.
`CNC(=O)c1nn(-c2ccccc2-c2ccc3ccn(C)c3c2)cc(O)c1=O` [Compound 618]: the IC50 was not below 1 µM.
With `CNC(=O)c1nn(-c2ccccc2-c2ccc3c(ccn3C)c2)cc(O)c1=O` [Compound 620], the IC50 was not below 1 µM.
In the case of `CNC(=O)c1nn(CC2(c3ccccc3)CCCC2)cc(O)c1=O` [Compound 627], the IC50 was in the range of 0.1 to 1 µM.
With `CNC(=O)c1nn(-c2ccccc2N2CCCc3ccccc32)cc(O)c1=O` [Compound 628], the IC50 is not below 1 µM.
Same read-out and setting: next, `CNC(=O)c1nn(-c2ccccc2-c2cc(Cl)cc(OC)c2)cc(O)c1=O` [Compound 629]: not below 1 µM; `CNC(=O)c1nn(-c2ccccc2-c2ccccc2OCC(C)C)cc(O)c1=O` [Compound 630]: 0.1 to 1 µM; `CNC(=O)c1nn(-c2ccccc2N2CCc3ccccc32)cc(O)c1=O` [Compound 632]: not below 1 µM.
On to `CCOc1cc(C)cc(-c2ccccc2-n2cc(O)c(=O)c(C(=O)NC)n2)c1` [Compound 633], for which the IC50 was not below 1 µM.
In the case of `CNC(=O)c1nn(CCc2cccc3ccccc23)cc(OC(C)=O)c1=O` [Compound 636], the IC50 is not below 1 µM.
`CNC(=O)c1nn(CC2(c3cccc(Oc4ccccc4)c3)CCCC2)cc(O)c1=O` [Compound 701]: the IC50 was less than 0.1 µM.
Take `O=C(NCc1ccc(F)c(Cl)c1)c1nn(CC2(c3cccnc3)CCCC2)cc(O)c1=O` [Compound 802]: the IC50 is less than 0.1 µM.
In the case of `O=C(NCc1ccc(F)c(Cl)c1)c1nn(CC2(c3ccc(Cl)cc3)CCCC2)cc(O)c1=O` [Compound 803], the IC50 was less than 0.1 µM.
As to `O=C(NCc1ccccc1)c1nn(CC2(c3ccc(Cl)cc3)CCCC2)cc(O)c1=O` [Compound 804], the IC50 is less than 0.1 µM.
Regarding `O=C(NCc1ccc(F)c(Cl)c1)c1nn(CC2(c3ccc(F)c(F)c3)CCCC2)cc(O)c1=O` [Compound 805], the IC50 was less than 0.1 µM.
